Test results as given in PubChem BioAssay (NCI).
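Method: 48-hour compound exposure of cells in 96-well plates, five concentrations, linear interpolation of endpoints. At the TGI there is no net growth.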

Experiments:
Test in all cases: growth of human tumour cells (NCI), 48 h
[1] = test system: A498 renal
[2] = test system: DLD-1 colon
[3] = test system: HCT-15 colon
[4] = test system: HL-60(TB) leukemia
[5] = test system: HOP-62 NSCLC
[6] = test system: LOX IMVI melanoma
[7] = test system: MOLT-4 leukemia
[8] = test system: NCI-H226 lung
[9] = test system: RPMI-8226 leukemia
[10] = test system: SK-MEL-2 melanoma
[11] = test system: HCT-116 colon
[12] = test system: NCI-H460 lung
[13] = test system: COLO 205 colon
[14] = test system: HOP-92 NSCLC
[15] = test system: DU-145 prostate
[16] = test system: MCF7 breast
[17] = test system: MDA-MB-435
[18] = test system: MDA-N
[19] = test system: NCI/ADR-RES ovarian
[20] = test system: PC-3 prostate

SMILES	TGI [1]	TGI [2]	TGI [3]	TGI [4]	TGI [5]	TGI [6]	TGI [7]	TGI [8]	TGI [9]	TGI [10]	TGI [11]	TGI [12]	TGI [13]	TGI [14]	TGI [15]	TGI [16]	TGI [17]	TGI [18]	TGI [19]	TGI [20]
COc1c(C)cc2c(c1O)C1NC(C2)[C@H](O)N2C3COC(=O)[C@@]4(CS[C@@H](c5c(OC(C)=O)c(C)c6c(c53)OCO6)C12)NCCC1=C4NC2C=CC=CC12 (stereo not given in full)	< 0.01 µM	0.0498 µM	0.113 µM	< 0.01 µM	< 0.01 µM	< 0.01 µM	< 0.01 µM	< 0.01 µM	0.0161 µM	< 0.01 µM										
Brc1cc2c(cc1C1SCCS1)OCO2	> 100 µM	> 100 µM	> 100 µM	> 100 µM	> 100 µM	> 100 µM	> 100 µM		> 100 µM	> 100 µM	> 100 µM	> 100 µM								
CC(C)N1CN(C(C(=O)N[C@@H]2C(=O)N3C2SC(C)(C)C3C(=O)O)c2ccc(O)cc2)CSC1=S (stereo not given in full)	> 100 µM	> 100 µM	> 100 µM	> 100 µM	> 100 µM	> 100 µM	> 100 µM		> 100 µM	> 100 µM	> 100 µM	> 100 µM	> 100 µM	> 100 µM						
COc1cc(/C=C\c2cccnc2)cc(OC)c1OC		> 100 µM	> 100 µM	48 µM	> 100 µM	71.3 µM	43.1 µM	> 100 µM	47.7 µM		> 100 µM	> 100 µM	69 µM	> 100 µM						
CCOP(=O)(OCC)C(C(=O)OC)C(=O)C(=O)Nc1c(C)cc(Br)cc1C (stereo not given)	> 100 µM	> 100 µM	> 100 µM	> 100 µM	> 100 µM	> 100 µM	> 100 µM	> 100 µM	> 100 µM	> 100 µM	> 100 µM	> 100 µM	> 100 µM	> 100 µM						
COc1ccc(C=C(c2ccc(OCc3ccccc3)cc2)c2ccc(OCc3ccccc3)cc2)cc1		> 100 µM	> 100 µM	> 100 µM	> 100 µM	> 100 µM		> 100 µM	> 100 µM	> 100 µM		> 100 µM	> 100 µM							
CCCCCCCC(=O)OCC1OC(OC)C(NC(=O)N(CCCl)N=O)C(O)C1O (stereo not given)	56.8 µM	28.6 µM	15.5 µM	22.3 µM	23.1 µM	23.8 µM	36.1 µM	42.1 µM	53.1 µM	> 57.2 µM	15 µM	> 39.2 µM	30.8 µM	9.96 µM						
COc1ccc2[nH]cc(CCNC(=O)[C@](O)(Cc3cn(C)c4ccccc34)[C@@]3(O)OCC(O)C3O)c2c1 (stereo not given in full)		> 100 µM	> 100 µM	> 100 µM	> 100 µM	> 100 µM	> 100 µM	> 100 µM	> 100 µM	> 100 µM	> 100 µM	> 100 µM	> 100 µM	> 100 µM						
NC(N)=NS(=O)(=O)c1ccc(Nc2c3ccccc3nc3c(C(=O)Nc4ccc(S(N)(=O)=O)cc4)ccc(Cl)c23)cc1	> 100 µM	> 100 µM	> 100 µM	> 100 µM	> 100 µM	> 100 µM	> 100 µM	> 100 µM	> 100 µM		> 100 µM	> 100 µM	> 100 µM	> 100 µM						
COCn1c(C)c(C)c2c(=O)oc(N(C)C)nc21	> 100 µM		> 100 µM	> 100 µM	> 100 µM	> 100 µM	> 100 µM	> 100 µM	> 100 µM	> 100 µM	> 100 µM	> 100 µM	> 100 µM	> 100 µM	> 100 µM	> 100 µM	> 100 µM	> 100 µM	> 100 µM	> 100 µM
COC(=O)/C=C\C(C#N)(C#N)N=Cc1ccc(Br)s1	31.5 µM		6.63 µM	5.04 µM	31.8 µM	7.39 µM	> 100 µM	12.4 µM	7.11 µM	33.2 µM	34.8 µM	48 µM	6.02 µM	4.67 µM	24.5 µM	6.1 µM	13.9 µM	24.4 µM	45.2 µM	26.8 µM
CNC(=O)CN(C)C(=O)CCC(=O)N(C)C	> 100 µM		> 100 µM	> 100 µM	> 100 µM	> 100 µM	> 100 µM	> 100 µM	> 100 µM	> 100 µM	> 100 µM	> 100 µM	> 100 µM	> 100 µM	> 100 µM	> 100 µM	> 100 µM	> 100 µM	> 100 µM	> 100 µM
Cc1ccc(C(=O)OCC(C)C)cc1N=NN(C)C		> 100 µM	> 100 µM	> 100 µM	> 100 µM	> 85.2 µM	> 100 µM	> 100 µM	> 100 µM	> 100 µM	> 100 µM	> 100 µM	> 100 µM	> 100 µM	> 100 µM	> 100 µM	> 100 µM	> 100 µM	> 100 µM	> 100 µM
CN1CCN(CCCCN2c3ccccc3Sc3cc(N=[N+]=[N-])ccc32)CC1	22.8 µM		5.68 µM	6.08 µM	6.63 µM	3.22 µM	4.12 µM	12.6 µM	5.88 µM	5.04 µM	2.98 µM	3.8 µM	3.25 µM	6.43 µM	15.1 µM	3.63 µM	3.17 µM	11.2 µM	7.86 µM	3.57 µM
O=C(O)[C@@H]1NC[C@H]2C(Br)=NO[C@H]21	> 100 µM		> 100 µM	> 100 µM	> 100 µM	> 100 µM	> 100 µM	> 100 µM	> 100 µM	> 100 µM	> 100 µM	> 100 µM	> 100 µM	> 100 µM	> 100 µM	> 100 µM	> 100 µM	> 100 µM	> 100 µM	> 100 µM
COc1ccccc1/C=C1\CCC(CCN2CCOCC2)C1=O (stereo not given)	> 100 µM	> 100 µM	> 100 µM	> 100 µM	> 100 µM	> 100 µM	> 100 µM	> 100 µM	> 100 µM	> 100 µM	> 100 µM	> 100 µM		> 100 µM						
COc1cc(/C=C2\C(=O)N(C(=O)c3ccc(NC(C)=O)cc3)N=C2C)ccc1O		> 100 µM		> 100 µM	> 100 µM	> 100 µM	> 100 µM	> 100 µM	> 100 µM		> 100 µM	> 100 µM	> 100 µM							
COC(=O)/C=C(\S/C(=N\n1cc(C(=O)OC)c(C(=O)OC)c1-c1ccc(C)cc1)c1ccc(C)cc1)C(=O)OC	30 µM		7.34 µM	14.7 µM	41.6 µM	17 µM	> 100 µM	3.5 µM	20.1 µM	15 µM	4.2 µM	> 56.6 µM	6.61 µM	8.31 µM	31.4 µM	23.7 µM	13.5 µM	12.7 µM	17.2 µM	10.3 µM
CC(=O)c1cccc(NC(=O)C(=O)Nn2c(N)nnc2N)c1	> 100 µM	> 100 µM	> 100 µM	> 100 µM	> 100 µM	> 100 µM	> 100 µM	> 100 µM	> 100 µM	> 100 µM	> 100 µM	> 100 µM	> 100 µM	> 100 µM						
O=c1[nH]cnc2c1CCCN2		> 100 µM	> 100 µM	> 100 µM	> 100 µM	> 100 µM	> 100 µM		> 100 µM	> 100 µM	> 100 µM		> 100 µM	> 100 µM						
CN1Cc2cc3c(cc2-c2ccccc21)OCO3	> 100 µM	> 100 µM		> 100 µM		> 100 µM	> 100 µM		> 100 µM	> 100 µM	> 100 µM	> 100 µM	> 100 µM	> 100 µM						
CC(=O)N1CC(=O)N2C(=O)/C(=C/c3ccc(Cl)cc3)N=C12	> 100 µM		> 100 µM	56.4 µM	> 100 µM	> 100 µM	> 100 µM	> 100 µM	> 100 µM	> 100 µM	> 100 µM	> 100 µM	> 100 µM	> 100 µM	> 100 µM	> 100 µM	> 100 µM	> 100 µM	> 100 µM	> 100 µM
COc1ccc(/C(CC2OC(=O)c3ccccc32)=N\NC(=O)C[N+](C)(C)C)cc1 (stereo not given)	60.1 µM		44.8 µM	> 100 µM	> 100 µM	65.9 µM	70.2 µM	62.6 µM	39.6 µM	94.2 µM	81.9 µM	66.7 µM	71 µM	67.8 µM	63.4 µM	> 100 µM	71.9 µM	> 100 µM	56.7 µM	> 100 µM
Cc1ccc2[nH]c3c(c2c1)C1CCC(C(C)(C)C)CC1C1C(=O)N(c2ccc4c(c2)OCO4)C(=O)C31 (stereo not given)	3.48 µM		16.5 µM	11.9 µM	4.24 µM	6.25 µM	4.25 µM	8.58 µM	14.7 µM	19.3 µM	6.36 µM	3.27 µM	12.5 µM	6.22 µM	9.88 µM	12.4 µM	20.5 µM	17.6 µM	10.2 µM	9.17 µM
Cc1nn(C)cc1P(=S)(c1ccccc1)c1ccccc1	> 100 µM	> 100 µM	> 100 µM	41.7 µM	> 100 µM	> 100 µM	> 100 µM		> 100 µM	> 100 µM	> 100 µM	> 100 µM	> 100 µM	> 100 µM						
O=[N+]([O-])c1cc(Cl)cc2cc(Br)cnc12	> 31.6 µM		> 31.6 µM	> 31.6 µM	> 31.6 µM	> 31.6 µM	> 31.6 µM	> 31.6 µM	> 31.6 µM	> 100 µM	> 31.6 µM	> 31.6 µM	> 31.6 µM	> 23.5 µM	> 31.6 µM	> 31.6 µM	> 31.6 µM	> 31.6 µM	> 31.6 µM	> 31.6 µM
CC(O)C1(CNc2cc(Cl)nc(N)n2)CC(CCc2ccccc2)C1 (stereo not given)	27.3 µM		24 µM	41.7 µM	27.3 µM	16.9 µM	56 µM	30.8 µM	43.1 µM	31.7 µM	21.1 µM	27.7 µM	28.8 µM	25 µM	35.9 µM	0.992 µM	26.6 µM	27.6 µM	21.8 µM	25.3 µM
